Values after ≈ are worked out from the molar mass of the structure shown.
Experiments:
[1] = Binding affinity to Escherichia coli ThiM TPP riboswitch
Escherichia coli [2] = experiment: Binding affinity to Escherichia coli ThiM TPP riboswitch assessed as inhibition of conformational switching
Bacterial 70S ribosome = experiment: Inhibition of Mycobacterium smegmatis ribosomes assessed as inhibition of translation activity; format: subcellular, Mycolicibacterium smegmatis
RNA = experiment: Binding affinity to RNA (unknown origin) by fluorescence based analysis; format: nucleic-acid assay
[3] = Binding affinity to HIV-1 RNA by SPR analysis; parameters: species or system Human immunodeficiency virus 1
[4] = Binding affinity to bacteria RNA by HTS method
Sulfhydryl oxidase 1 = target: T1, Sulfhydryl oxidase 1 (Homo sapiens, UniProt O00391); experiment: Binding affinity to QSOX1 in human MDA-MB-231 cells; format: cell-based
T1 sequence (O00391 whole entry): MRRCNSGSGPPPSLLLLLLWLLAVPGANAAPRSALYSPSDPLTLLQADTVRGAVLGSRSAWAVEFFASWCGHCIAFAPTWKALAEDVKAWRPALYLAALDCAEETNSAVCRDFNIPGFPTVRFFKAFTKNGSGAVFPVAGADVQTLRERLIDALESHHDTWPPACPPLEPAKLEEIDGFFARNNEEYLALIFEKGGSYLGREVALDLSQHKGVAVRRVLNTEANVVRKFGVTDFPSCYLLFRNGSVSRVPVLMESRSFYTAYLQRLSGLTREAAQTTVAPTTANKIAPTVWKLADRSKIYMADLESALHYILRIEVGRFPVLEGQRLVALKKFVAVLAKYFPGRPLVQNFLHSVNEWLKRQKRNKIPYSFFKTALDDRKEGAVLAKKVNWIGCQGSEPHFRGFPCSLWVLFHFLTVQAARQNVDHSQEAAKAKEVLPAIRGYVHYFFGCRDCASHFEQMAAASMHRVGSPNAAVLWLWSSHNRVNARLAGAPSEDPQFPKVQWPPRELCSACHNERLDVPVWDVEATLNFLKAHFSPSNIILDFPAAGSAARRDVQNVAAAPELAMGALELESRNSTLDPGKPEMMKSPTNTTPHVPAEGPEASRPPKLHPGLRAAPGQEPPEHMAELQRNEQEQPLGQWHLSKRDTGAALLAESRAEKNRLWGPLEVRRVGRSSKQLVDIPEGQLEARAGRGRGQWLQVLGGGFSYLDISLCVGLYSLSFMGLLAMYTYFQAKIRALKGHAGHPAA

[5] = Binding affinity to HIV1 TAR RNA assessed as inhibition of Tat-mediated transactivation; format: functional, Human immunodeficiency virus 1
[6] = Binding affinity to pri-miR-96 (unknown origin)
[7] = Inhibition of pri-miR-96 biogenesis in human MDA-MB-231 cells; format: cell-based
[8] = Binding affinity to pre-miR-372 (unknown origin)
[9] = Inhibition of pre-miR-372 biogenesis in human AGS cells; format: cell-based
microRNA 21 [10] = experiment: Binding affinity to pre-miR-21 (unknown origin); format: nucleic-acid assay
microRNA 21 [11] = experiment: Inhibition of pre-miR-21 biogenesis in human MDA-MB-231 cells; format: cell-based
microRNA 21 [12] = experiment: Inhibition of pre-miR-21 biogenesis in human Triple-negative breast cancer cell; format: cell-based
Staphylococcus aureus = experiment: Antibacterial activity against Staphylococcus aureus assessed as bacterial growth inhibition; format: functional
Escherichia coli [13] = experiment: Antibacterial activity against Escherichia coli assessed as bacterial growth inhibition; format: functional
[14] = Binding affinity to influenza A virus RNA by one-dimensional NMR spectroscopy method
Influenza A virus = experiment: Antiviral activity against Influenza A virus assessed as inhibition of virus-induced cytopathic effect; format: functional, organism-based
Influenza B virus = experiment: Antiviral activity against Influenza B virus assessed as inhibition of virus-induced cytopathic effect; format: functional, organism-based
[15] = target: T2, Sulfhydryl oxidase 1 (Homo sapiens) (UniProt O00391); experiment: Inhibition of QSOX1 in human MDA-MB-231 cells at 20 uM relative to control; format: cell-based
T2 sequence (whole entry): T1 sequence (O00391 whole entry)

For `c1cc(N2CCNCC2)c(NCc2ccc3nccnc3c2)cn1`, which Kd [1] is on record?
Its Kd is 0.068 µM.

What about the K (Escherichia coli [2]) of the same compound?
The K was 68 µM.

Which IC50 (Bacterial 70S ribosome) does the source give for `Cc1nc(CN2CCN(Cc3csc(-c4ccccc4)n3)CC2)cs1` here?
The IC50 was 9.1 µM.

With `Cc1nc(N)nc(N)n1` as the compound, how does the Kd (RNA) read?
The Kd was 110 µM.

Which Kd (RNA) does the source give for `Nc1csc(Br)n1` here?
The Kd was 650 µM.

For `Nc1ccnc(N)n1` [DIAMINOPYRIMIDINE], which Kd (RNA) is on record?
Its Kd is 80 µM.

With `Nc1nc2[nH]nc(N)n2n1` as the compound, how does the Kd (RNA) read?
Its Kd is 370 µM.

For `CCc1nc2cc3ccccc3cc2cc1C(=O)N(C)[C@@H](CCn1cc(C[C@@H](C(=O)N2CCC[C@H]2C(=O)N(C)[C@@H](Cc2ccccc2)C(=O)NCCCN)N(C)C(=O)c2cc3cc4ccccc4cc3nc2CC)nn1)C(=O)N1CCC[C@H]1C(=O)N(C)[C@@H](Cc1ccccc1)C(=O)NCCCN`, which Kd [3] is on record?
The Kd was 0.016 µM.

With `NCC[C@@H](NC(=O)c1ccc(-c2cccc(NC(=O)c3ccc4nc(O)c(O)nc4c3)c2)o1)C(=O)N1CCNCC1` as the compound, how does the Kd [4] read?
Its Kd is 6.5 µM.

For `CCOC(=O)C1=C(Nc2ccccc2)S/C(=C\c2ccc(OCCOCCOCCOCCNC(=O)CCC(=O)N(C)[C@H]3CC[C@@H](c4ccc(Cl)c(Cl)c4)c4ccccc43)c(O)c2)C1=O`, which Kd (Sulfhydryl oxidase 1) is on record?
The Kd was 16 µM.

With `Nc1ccc2ccnc(N)c2c1` as the compound, how does the IC50 [5] read?
Its IC50 is 150 µM.

With `CN1CCN(c2ccc3nc(-c4ccc5[nH]c(-c6cccc(OCCCC(=O)NCCN=[N+]=[N-])c6)nc5c4)[nH]c3c2)CC1` as the compound, how does the Kd [6] read?
Its Kd is 1.3 µM.

What about the IC50 [7] of the same compound?
The IC50 was ~0.02 µM.

Which Kd [1] does the source give for `Nc1ccc2nccnc2c1` here?
The Kd was 22 µM.

For `O=c1[nH]cccc1-c1nc(-c2cccc(Cl)c2)no1`, which Kd [8] is on record?
The Kd was 0.3 µM.

And the IC50 [9]?
Its IC50 is ~1 µM.

For `CCc1nc2ccccc2cc1C(=O)N[C@@H](CSSC[C@H](NC(=O)c1cc2ccccc2nc1CC)C(=O)N1CCC[C@H]1C(=O)N[C@@H](Cc1ccccc1)C(=O)NCCCCCC(N)=O)C(=O)N1CCC[C@H]1C(=O)N[C@@H](Cc1ccccc1)C(=O)NCCCCCC(N)=O`, which Kd [3] is on record?
The Kd was 4.1 µM.

With `CCCN(CC(=O)N(CCC)CC(=O)N(CC(N)=O)Cc1cn(CCCNC(=O)CCCOc2c(C(C)(C)C)cc(-c3nc4cc(N5CCN(C)CC5)ccc4[nH]3)cc2C(C)(C)C)nn1)C(=O)CCCOc1cccc(-c2nc3ccc(-c4nc5ccc(N6CCN(C)CC6)cc5[nH]4)cc3[nH]2)c1` as the compound, how does the Kd [6] read?
The Kd was 0.085 µM.

And the IC50 [7]?
The IC50 was ~0.05 µM.

Which results are given for `CN1CCN(c2ccc(-c3ccc4nc(-c5ccc(OCCCC(=O)N6CCN(c7nncc8sccc78)CC6)cc5)[nH]c4c3)cc2)CC1`?
Kd (microRNA 21 [10]): 0.352 µM; IC50 (microRNA 21 [11]): ~1 µM; IC50 (microRNA 21 [12]): ~1 µM

For `CNCc1cc2cccnc2s1`, which Kd [1] is on record?
The Kd was 60 µM.

With `c1cc(N2CCNCC2)ccn1` as the compound, how does the Kd [1] read?
The Kd was 620 µM.

For `CN(C)CCCOc1ccc(C(NC(=O)c2ccc(-c3cccc(NC(=O)c4ccc(-c5ccccc5)cc4)c3)o2)C(=O)N2CCNCC2)cc1` (centres undefined), which MIC (Staphylococcus aureus) is on record?
The MIC was 3 µM (≈ 2.06 µg/mL).

What about the MIC (Escherichia coli [13]) of the same compound?
The MIC was 6 µM (≈ 4.11 µg/mL).

What does the source list for `COc1cc2nc(N3CCNCC3)nc(N)c2cc1OC` [AMINODIMETHOXYQUINAZOLINYLPIPERAZINE]?
Kd [14]: 50 µM; EC50 (Influenza A virus): 71 µM; EC50 (Influenza B virus): 71 µM

With `COc1ccc2nc3cc(F)ccc3c(N)c2c1` as the compound, how does the Kd [3] read?
The Kd was 59 µM.

Which Kd [6] does the source give for `CN1CCN(c2ccc3nc(-c4cc(C(C)(C)C)c(OCCCC(=O)NCCCN=[N+]=[N-])c(C(C)(C)C)c4)[nH]c3c2)CC1` here?
The Kd was 1.5 µM.

Which Kd [1] does the source give for `OCc1ccc2nsnc2c1` here?
The Kd was 56 µM.

With `CCN1CCN(Cc2csc(-c3ccccc3)n2)CC1` as the compound, how does the IC50 (Bacterial 70S ribosome) read?
Its IC50 is 2.8 µM.

For `Nc1ccc2nc(N)nc(N)c2c1` [QUINAZOLINE-2,4,6-TRIAMINE], which IC50 [5] is on record?
The IC50 was 40 µM.

With `NC1=Nc2cccc3cccc(c23)N1` as the compound, how does the IC50 [5] read?
Its IC50 is 50 µM.

For `C#CCCC1(CCC(=O)N(C)[C@H]2CC[C@@H](c3ccc(Cl)c(Cl)c3)c3ccccc32)N=N1`, which inhibition [15] is on record?
Its inhibition is 15%.

For `COc1ccc2nc3cc(F)ccc3c(Nc3ccc(C(=O)Nc4ccncc4)cc3)c2c1`, which Kd [3] is on record?
The Kd was 1 µM.

For `CN1CCN(c2ccc(-c3ccc4nc(-c5ccc(OCCCC(=O)CCCN=[N+]=[N-])cc5)[nH]c4c3)cc2)CC1`, which Kd (microRNA 21 [10]) is on record?
The Kd was 18 µM.

For `Cc1ncc(CN=[N+]=[N-])cn1`, which Kd [1] is on record?
The Kd was 49 µM.
